Reference: US8367727B2, “Method of using abscisic acid to treat diseases and disorders” (priority 2006, dated 2013)

System: MCP-1 promoter
Test: MCP-1 promoter luciferase reporter in 3T3-L1 pre-adipocytes
Assay type: cell-based
Conditions: GW9662 30 μM
Experimental: 3T3-L1 cells (American Type Culture Collection, Manassas, Va.) were grown in 24-well plates in DMEM high glucose medium (Invitrogen, Carlsbad, Calif.) containing 10% fetal bovine serum (FBS) until 60-70% confluence. Before transfection, the medium was changed to 1% FBS. The cells cultured in 24-well plates were co-transfected with 0.8 μg plasmid DNA and 1 ng of pRL reporter control plasmid per well using F-1 transfection reagents (Targeting Systems, Santee, Calif.) according to the manufacturer's protocol. Transfection efficiencies were determined by cotransfecting the cells with a pcDNA™ 3.1/His/lacZ control vector at 24 h. The transfected cells were then treated with either a racemic ABA mixture (12.5 μM; Sigma) or rosiglitazone (1 μM; Cayman Chemicals, Ann Arbor, Mich.) for 24 hours. Designated wells were also treated with the PPAR γ antagonist GW9662 (30 μM; Cayman Chemicals). Transfected cells were harvested in reporter lysis reagent. Luciferase activity, normalized to pRL activity in the cell extracts was determined by using the dual luciferase reporter assay system (Promega, Madison, Wis.) in a TD-20/20 Single-Tube Luminometer (Turner Biosystems, Sunnyvale, Calif.). Relative luciferase activity (RLA) was calculated as a ratio of the chemiluminescence 10 seconds after the Luciferase Assay Reagent II (Promega) was added over the chemiluminescence 10 seconds after the Stop&Glo Reagent (Promega).
To further examine the effect of ABA on MCP-1 transactivation, 3T3-L1 preadipocytes were transfected with a MCP-1 promoter luciferase reporter construct and also cotransfected with a pCMX PPAR γ expression plasmid to increase endogenous PPAR γ activity. Cells were then treated with ABA (12.5 μM), rosiglitazone (1 μM), the PPAR γ antagonist GW9662 (30 μM), or a combination of agonist and inhibitor.

For `O=C(Nc1ccccc1)c1cc([N+](=O)[O-])ccc1Cl` [GW9662, reference compound], the “inhibition of the effects of ABA and rosiglitazone on MCP-1 promoter activity” value was “inhibited”.
